Key:
BACE1 [1] = target: T1, BACE1 (Homo sapiens, UniProt P56817); assay: In Vitro Enzymatic BACE FRET (Fluorescence Resonance Energy Transfer) Assay; type: biochemical; details: read-out: BACE1 FRET assay
Method in brief: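 Buffer 0.05 M acetate pH 4.2 with 10% DMSO final and 100 uM genapol; reaction started with 50 nM FRET peptide substrate (fluorophore/quencher flanking BACE cleavage site), incubated one hour. Stopped with Tris buffer raising pH to neutrality, then fluorescence read.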

BACE1 [2] = target: T1, BACE1; assay: In Vitro BACE Cell-based Assay (HEK cell assay): Aβ40 in conditioned medium of cells stably expressing Amyloid Precursor Protein, sandwich ELISA; details: read-out: HEK cell assay
Method in brief: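 HEK cells stably expressing APP were treated 24 h with compound in 10-point dose response starting at 100 or 10 μM (0.1% DMSO). Secreted Aβ40 quantified by sandwich ELISA (pAb40 capture, biotinylated 6E10 detection, europium time-resolved fluorescence), with IC50 derived from percent inhibition versus concentration.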

[3] = in vitro BACE FRET enzyme assay, IC50 class symbols
[4] = HEK cell-based assay, Aβ40 in conditioned medium, IC50 class symbols
[5] = Table II, Aβ40, 24 h incubation

T1 sequence (P56817 46-501, species assumed): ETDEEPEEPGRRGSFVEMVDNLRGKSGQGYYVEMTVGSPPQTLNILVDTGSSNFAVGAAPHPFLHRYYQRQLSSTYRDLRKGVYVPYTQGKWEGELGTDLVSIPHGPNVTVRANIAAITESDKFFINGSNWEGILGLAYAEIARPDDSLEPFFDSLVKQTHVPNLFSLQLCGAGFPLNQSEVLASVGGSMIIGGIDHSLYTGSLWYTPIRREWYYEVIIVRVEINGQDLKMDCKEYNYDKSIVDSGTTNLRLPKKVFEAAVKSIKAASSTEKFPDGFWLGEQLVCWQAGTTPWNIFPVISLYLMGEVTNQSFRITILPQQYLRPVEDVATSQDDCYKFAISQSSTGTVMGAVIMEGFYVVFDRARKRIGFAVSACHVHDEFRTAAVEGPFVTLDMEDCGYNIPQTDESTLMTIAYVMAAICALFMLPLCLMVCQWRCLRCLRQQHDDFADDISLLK

Cn1cc(-c2cc3c(cn2)Oc2ccc(-c4cccc(Cl)c4)cc2[C@@]32COC(N)=N2)cn1 [compound 329]
IC50 (BACE1 [1]; [3]): < 0.1 µM
IC50 (BACE1 [2]; [4]): < 0.1 µM

NC1=N[C@@]2(CO1)c1cc(-c3cncnc3)ccc1Oc1ccc([C@@H]3CCOC3)cc12 [compound 420]
IC50 (BACE1 [1]): < 0.1 µM
IC50 (BACE1 [2]; HEK cells): 0.1 to 1 µM

COc1ccc2c(c1)[C@]1(COC(N)=N1)c1cc(-c3cnc4ccccc4c3)ccc1O2 [compound 633]
IC50 (BACE1 [1]; Table IV, class symbols): 1 to 5 µM
IC50 (BACE1 [2]; Table IV, class symbols): 1 to 5 µM

COc1ccc2c(c1)[C@]1(COC(N)=N1)c1cc(-c3cccc4ncccc34)ccc1O2 [compound 591]
IC50 (BACE1 [1]; Table IV, class symbols): 1 to 5 µM
IC50 (BACE1 [2]; Table IV, class symbols): 1 to 5 µM

CC(C)(C)COc1ccc2c(c1)[C@]1(CSC(N)=N1)c1cc(-c3cncnc3)ccc1O2 [compound 720]
IC50 (BACE1 [1]): < 0.1 µM
IC50 (BACE1 [2]): < 0.1 µM

C[C@@H]1OC(N)=N[C@@]12c1cc(OCC(C)(C)C)ccc1Oc1ccc(-c3cncnc3)cc12 [126b]
IC50 (BACE1 [1]; Table III, IC50's in uM ranges): < 0.1 µM
IC50 (BACE1 [2]; Table III, IC50's in uM ranges): 0.1 to 1 µM

CC(C)(C)COc1ccc2c(c1)[C@@]1(COC(N)=N1)c1cc(-c3ccc(C#N)nc3)ccc1O2 [compound 782]
IC50 (BACE1 [1]): < 0.1 µM
IC50 (BACE1 [2]): 0.1 to 1 µM

NC1=N[C@@]2(CO1)c1cc(-c3cccnc3)ccc1Oc1cc(F)c(C3=CCOCC3)cc12 [compound 476]
IC50 (BACE1 [1]): < 0.1 µM
IC50 (BACE1 [2]; HEK cells): < 0.1 µM

COC(C)(C)CCc1ccc2c(c1)[C@]1(COC(N)=N1)c1cc(-c3cccnc3)ccc1O2 [compound 1001]
IC50 (BACE1 [1]): < 0.1 µM
IC50 (BACE1 [2]): < 0.1 µM

N#CCOc1ccc2c(c1)[C@]1(COC(N)=N1)c1cc(-c3cccnc3)ccc1O2 [compound 981]
IC50 (BACE1 [1]): 0.1 to 1 µM
IC50 (BACE1 [2]): 1 to 5 µM

CC1(COc2ccc3c(c2)[C@]2(COC(N)=N2)c2cc(-c4ccccc4F)cnc2O3)COC1 [compound 746]
IC50 (BACE1 [1]): < 0.1 µM
IC50 (BACE1 [2]): 0.1 to 1 µM

CC(C)(C)COc1ccc2c(c1)[C@@]1(COC(N)=N1)c1cc(-c3cccnc3)cnc1O2 [Example 93, (5S)-7-(2,2-dimethylpropoxy)-3-(3-pyridinyl)spiro[chromeno[2,3-b]pyridine-5,4′-[1,3]oxazol]-2′-amine]
IC50 (BACE1 [1]; Table II): 0.1 to 1 µM
IC50 (BACE1 [2]; [5]): 0.1 to 1 µM

CC1(C)CC(=O)N(c2ccc3c(c2)[C@]2(COC(N)=N2)c2cc(-c4cccnc4)ccc2O3)C1 [compound 749]
IC50 (BACE1 [1]): < 0.1 µM
IC50 (BACE1 [2]): < 0.1 µM

COc1cncc(-c2ccc3c(c2)[C@@]2(COC(N)=N2)c2cc(C#CC(C)(C)C)cnc2O3)c1 [compound 643]
IC50 (BACE1 [1]; Table IV, class symbols): < 0.1 µM
IC50 (BACE1 [2]; Table IV, class symbols): < 0.1 µM

CC(C)(C)COc1ccc2c(c1)[C@]1(COC(N)=N1)c1cc(-c3ncccn3)ccc1O2 [compound 885]
IC50 (BACE1 [1]; Table IV, class symbols): 0.1 to 1 µM
IC50 (BACE1 [2]; Table IV, class symbols): 1 to 5 µM

CC(C)(C)CCc1cc2c(cn1)Oc1ccc(-c3cncnc3)cc1[C@@]21COC(N)=N1 [compound 455]
IC50 (BACE1 [1]): < 0.1 µM
IC50 (BACE1 [2]; HEK cells): < 0.1 µM

CC(C)(C)COc1ccc2c(c1)[C@@]1(COC(N)=N1)c1cc(-c3ccc(F)nc3)cnc1O2 [compound 868]
IC50 (BACE1 [1]; Table IV, class symbols): < 0.1 µM
IC50 (BACE1 [2]; Table IV, class symbols): < 0.1 µM

CC(C)(C)C#Cc1ccc2c(c1)C1(COC(N)=N1)c1cc(C#CC(C)(C)C)ccc1O2 [compound 930]
IC50 (BACE1 [1]): 0.1 to 1 µM
IC50 (BACE1 [2]): 1 to 5 µM

CC(C)OC1CN(c2ccc3c(c2)[C@]2(COC(N)=N2)c2cc(-c4cccnc4)ccc2O3)C1 [compound 384]
IC50 (BACE1 [1]; [3]): < 0.1 µM
IC50 (BACE1 [2]; [4]): < 0.1 µM

Cc1ccc(-c2cnc3c(c2)[C@]2(COC(N)=N2)c2cc(C#CC(C)(C)O)ccc2O3)cc1 [compound 579]
IC50 (BACE1 [1]; Table IV, class symbols): < 0.1 µM
IC50 (BACE1 [2]; Table IV, class symbols): < 0.1 µM

CC1(C)CC(c2cc3c(cn2)Oc2ccc(-c4cccnc4)cc2[C@@]32COC(N)=N2)=CCO1 [compound 436]
IC50 (BACE1 [1]): < 0.1 µM
IC50 (BACE1 [2]; HEK cells): < 0.1 µM

CC(C)(C)COc1ccc2c(c1)[C@]1(COC(N)=N1)c1cc(-c3csc(N4CCCC4)n3)ccc1O2 [compound 215]
IC50 (BACE1 [1]; Table III, IC50's in uM ranges): 1 to 5 µM
IC50 (BACE1 [2]; Table III, IC50's in uM ranges): > 5 µM

COc1ccc2c(c1)[C@]1(COC(N)=N1)c1cc(-c3cncnc3)cc(F)c1O2 [152a]
IC50 (BACE1 [1]; Table III, IC50's in uM ranges): 0.1 to 1 µM
IC50 (BACE1 [2]; Table III, IC50's in uM ranges): 1 to 5 µM

CC(C)(C)COc1ccc2c(c1)[C@]1(COC(N)=N1)c1cc(-c3ccnnc3)ccc1O2 [compound 145]
IC50 (BACE1 [1]; Table III, IC50's in uM ranges): < 0.1 µM
IC50 (BACE1 [2]; Table III, IC50's in uM ranges): 0.1 to 1 µM

Cc1ccc(-c2ccc3c(c2)[C@@]2(COC(N)=N2)c2cc(OCC(C)(C)C)ccc2O3)cn1 [Example 80, (4S)-2′-(2,2-dimethylpropoxy)-7′-(6-methyl-3-pyridinyl)spiro[1,3-oxazole-4,9′-xanthen]-2-amine]
IC50 (BACE1 [1]; Table II): 0.1 to 1 µM
IC50 (BACE1 [2]; [5]): 1 to 5 µM
